For two molecules, IC50 results are on record in ChEMBL document CHEMBL1150639, “Antiplasmodial compounds from Cochlospermum tinctorium” (J Nat Prod, 2002).

The experiment concerns Plasmodium falciparum. As to the kind of experiment: Antiplasmodial activity against chloroquine-sensitive Plasmodium falciparum 3D7. It is filed as functional, organism-based.

What is called IC50 is the midpoint of a concentration-inhibition curve. A lower IC50 goes with inhibition by little substance. As to `CCCCCCCCCCCC(=O)CCO`, the IC50 came out at 68 µM. This lies in the double-digit micromolar range.
Next, `C=C(C)[C@@H]1CC[C@]2(C(=O)O)CC[C@]3(C)[C@H](CC[C@@H]4[C@@]5(C)C[C@@H](O)[C@H](O)C(C)(C)[C@@H]5CC[C@]43C)[C@@H]12` [ALPHITOLIC ACID]: 35 µM.
